Non-standard residues stand in square brackets, D forms with d. Residues, ends and D or L forms follow the SMILES beside them. No end group written: not given here. ξ: configuration not given here. Pro(trans-4-F) = O=C(O)[C@@H]1C[C@@H](F)CN1; Pro(4,4-Me2) = CC1(C)CN[C@H](C(=O)O)C1; Pro(4-oxo) = O=C1CN[C@H](C(=O)O)C1; Hyp = O=C(O)[C@@H]1C[C@@H](O)CN1; Ile(3ξ) = CCC(C)[C@H](N)C(=O)O; Thr(3ξ) = CC(O)[C@H](N)C(=O)O
How the values were obtained:
[1] = Stability in aqueous solution, amount of related substances under long-term storage conditions; type: physicochemical; conditions: glass vial, 25° C., 75% RH
Experimental: In order to confirm the stability of each test substance in an aqueous solution, […] of each sample was dissolved in 1 ml of water to a concentration of 1 mg/ml, which was then charged to a glass vial, plugged with a rubber cap, sealed with an aluminum cap, and stored under long-term storage conditions (25° C., 75% RH). The stability of the test substance was evaluated by measuring the amount of related substances at the time of one week, two weeks, four weeks, eight weeks, and twelve weeks under the long-term storage conditions.

[2] = tested on: cornea of rats with dry eye syndrome (ELGE); assay: Corneal permeability of fluorescent dye (corneal damage) in rats with ELGE-induced dry eye syndrome; type: in vivo, rat; conditions: 0.3% solution, day 14 after the administration
Excerpt: In order to evaluate the eye protection effect on dry eye syndrome by YDE-001 to YDE-028 prepared in Working Example 1, a total of 320 Sprague-Dawley-type male rats (OrientBio, Seungnam, Korea) were adapted for 7 days. Thereafter, dry eye syndrome was induced in 264 test rats through extraorbital lacrimal gland excision (hereinafter, ELGE). 8 test rats without the eye abnormality were subjected to a sham operation as a control group.
The rats were systemically anesthetized by inhaling a mixed gas of 2% to 3% of isoflurane (Hana Pharm. Co., Hwasung, Korea), 70% of N2O, and 28.6% of O2 using a rodent anesthesia machine (Surgivet, Waukesha, Wis., USA) and a ventilator (Model 687, Harvard Apparatus, Cambridge, UK). Thereafter, the extraorbital lacrimal gland located in the subdermal area above the masseter muscle and under the optic nerve was excised through a transverse incision in a size of 10 mm on the anterior part of the left ear tragus. The skin was sutured by a general method. […] After 6 days following the ELGE operation, confirmation was performed through the Schirmer test by measuring the amount of tear secretion whether dry eye syndrome had been induced. Meanwhile, each rat of the control group with the sham operation was checked for the presence and location of the extraorbital lacrimal gland through a skin incision, and the skin was then sutured without the excision thereof (FIG. 134).
In addition, in order to evaluate the eye protection effect on dry eye syndrome by YDE-029 to YDE-043 prepared in Working Example 1, a total of 200 Sprague-Dawley-type male rats (OrientBio, Seungnam, Korea) were adapted for 7 days. Dry eye syndrome was induced in 165 test rats through the ELGE. 8 test rats without the eye abnormality were subjected to the sham operation as a control group. The ELGE was carried out as described above.
(§1) For YDE-001 to YDE-028, YY-102 and the 28 YDE-series were each dissolved in physiological saline at a concentration of 3 mg/ml and administered at a dose of 5 μl/eye at 9:30 am and 3:30 pm daily for 14 days after 7 days from the ELGE operation for a total of 28 times. The DS solution was dissolved in physiological saline at a concentration of 30 mg/ml and administered at a dose of 5 μl/eye twice a day for 14 days after 7 days from the ELGE operation for a total of 28 times. For the sham control and the ELGE control groups, the same stimulation as the administration was applied. In order to prevent excessive eye dryness, the same volume of physiological saline was applied in the same manner in place of the test substances.
as §1, with “Further, For YDE-029” for “For YDE-001”, “Further, For YDE-029 to YDE-043,” for “For YDE-001 to YDE-028,”, “YDE-029 to YDE-043, YY-102 and” for “YDE-001 to YDE-028, YY-102 and”, “and the 15 YDE-series were” for “and the 28 YDE-series were”, “the test substances (FIG. 137).” for “the test substances.”
After YDE-001 to YDE-028 were each administered to the eyes […], the changes in the corneal permeability were checked.
In order to measure the corneal permeability, Zolethyl 50™ (Virbac Lab., Carros, France), an animal anesthetic, was intraperitoneally injected at a dose of 25 mg/kg. Thereafter, saline containing a 1% (v/v) fluorescent solution (fluorescein sodium salt, Tokyo Kasei Kogyo Co., Tokyo, Japan) was applied to the eyes at a dose of 5 μl/eye. The eyes thus treated were closed and fixed with a tape. After 1 hour, the remaining fluorescent solution was removed using a cotton swab (FIG. 142). […]

[3] = study of YDE-001 to YDE-028 (Table 16)
[4] = study of YDE-029 to YDE-043 (Table 17)

Compound	Amount of related substances (%; after 12 weeks) [1] [%]	Permeability of fluorescent dye (%) [2, 3] [%]	Permeability of fluorescent dye (%) [2, 4] [%]
CC(C)C[C@H](NC(=O)[C@H](C)NC(=O)[C@H](CC(=O)O)NC(=O)[C@H](CCC(N)=O)NC(=O)CNC(=O)[C@@H]1C[C@@H](O)CN1)C(=O)N[C@@H](C)C(=O)NCC(=O)N1CCC[C@H]1C(=O)N[C@@H](CCCCN)C(=O)O [YDE-018, HyP-Gly-Gln-Asp-Ala-Leu-Ala-Gly-Pro-Lys] (H-[Hyp]GQDALAGPK-OH)	25.39	38.19 ± 10.96	–
CC(C)C[C@H](NC(=O)[C@H](CO)NC(=O)[C@H](CC(=O)O)NC(=O)[C@H](CCC(N)=O)NC(=O)CNC(=O)[C@@H]1C[C@@H](O)CN1)C(=O)N[C@@H](C)C(=O)NCC(=O)N1CCC[C@H]1C(=O)N[C@@H](CCCCN)C(=O)O [YDE-023, HyP-Gly-Gln-Asp-Ser-Leu-Ala-Gly-Pro-Lys] (H-[Hyp]GQDSLAGPK-OH)	30.66	26.51 ± 8.18	–
CC(C)C[C@H](NC(=O)CNC(=O)[C@H](CC(C)C)NC(=O)[C@H](CCC(N)=O)NC(=O)CNC(=O)[C@@H]1CC(C)(C)CN1)C(=O)N[C@@H](C)C(=O)NCC(=O)N1CCC[C@H]1C(=O)N[C@@H](CCCCN)C(=O)O [YDE-040, (4-Dimethyl)Pro-Gly-Gln-Leu-Gly-Leu-Ala-Gly-Pro-Lys] (H-[Pro(4,4-Me2)]GQLGLAGPK-OH)	–	–	18.33 ± 9.41
CC(C)C[C@H](NC(=O)[C@@H](NC(=O)[C@H](CC(=O)O)NC(=O)[C@H](CCC(N)=O)NC(=O)CNC(=O)[C@@H]1C[C@@H](O)CN1)C(C)C)C(=O)N[C@@H](C)C(=O)NCC(=O)N1CCC[C@H]1C(=O)N[C@@H](CCCCN)C(=O)O [YDE-015, HyP-Gly-Gln-Asp-Val-Leu-Ala-Gly-Pro-Lys] (H-[Hyp]GQDVLAGPK-OH)	13.05	15.95 ± 6.48	–
CC(C)C[C@H](NC(=O)CNC(=O)[C@H](Cc1ccccc1)NC(=O)[C@H](CCC(N)=O)NC(=O)CNC(=O)[C@@H]1C[C@@H](O)CN1)C(=O)N[C@@H](C)C(=O)NCC(=O)N1CCC[C@H]1C(=O)N[C@@H](CCCCN)C(=O)O [YDE-012, HyP-Gly-Gln-Phe-Gly-Leu-Ala-Gly-Pro-Lys] (H-[Hyp]GQFGLAGPK-OH)	3.57	31.01 ± 11.38	–
CC(C)C[C@H](NC(=O)CNC(=O)[C@H](Cc1cnc[nH]1)NC(=O)[C@H](CCC(N)=O)NC(=O)CNC(=O)[C@@H]1C[C@@H](O)CN1)C(=O)N[C@@H](C)C(=O)NCC(=O)N1CCC[C@H]1C(=O)N[C@@H](CCCCN)C(=O)O [YDE-004, HyP-Gly-Gln-His-Gly-Leu-Ala-Gly-Pro-Lys] (H-[Hyp]GQHGLAGPK-OH)	2.11	35.05 ± 11.74	–
CC(C)C[C@H](NC(=O)CNC(=O)[C@H](CC(C)C)NC(=O)[C@H](CCC(N)=O)NC(=O)CNC(=O)[C@@H]1C[C@@H](O)CN1)C(=O)N[C@@H](C)C(=O)NCC(=O)N1CCC[C@H]1C(=O)N[C@@H](CCCCN)C(=O)O [YDE-011, HyP-Gly-Gln-Leu-Gly-Leu-Ala-Gly-Pro-Lys] (H-[Hyp]GQLGLAGPK-OH)	3.83	18.11 ± 11.61	–
CC(C)C[C@H](NC(=O)[C@@H](NC(=O)[C@H](CC(=O)O)NC(=O)[C@H](CCC(N)=O)NC(=O)CNC(=O)[C@@H]1C[C@@H](O)CN1)C(C)O)C(=O)N[C@@H](C)C(=O)NCC(=O)N1CCC[C@H]1C(=O)N[C@@H](CCCCN)C(=O)O (stereo partly drawn) [YDE-024, HyP-Gly-Gln-Asp-Thr-Leu-Ala-Gly-Pro-Lys] (H-[Hyp]GQD[Thr(3ξ)]LAGPK-OH)	20.59	30.63 ± 10.41	–
CC(C)C[C@H](NC(=O)CNC(=O)[C@H](CCCCN)NC(=O)[C@H](CCC(N)=O)NC(=O)CNC(=O)[C@@H]1C[C@@H](O)CN1)C(=O)N[C@@H](C)C(=O)NCC(=O)N1CCC[C@H]1C(=O)N[C@@H](CCCCN)C(=O)O [YDE-005, HyP-Gly-Gln-Lys-Gly-Leu-Ala-Gly-Pro-Lys] (H-[Hyp]GQKGLAGPK-OH)	2.97	37.98 ± 11.53	–
CC(C)C[C@H](NC(=O)CNC(=O)[C@H](CO)NC(=O)[C@H](CCC(N)=O)NC(=O)CNC(=O)[C@@H]1C[C@@H](O)CN1)C(=O)N[C@@H](C)C(=O)NCC(=O)N1CCC[C@H]1C(=O)N[C@@H](CCCCN)C(=O)O [YDE-006, HyP-Gly-Gln-Ser-Gly-Leu-Ala-Gly-Pro-Lys] (H-[Hyp]GQSGLAGPK-OH)	3.67	33.23 ± 13.26	–
CC(C)C[C@H](NC(=O)CNC(=O)[C@H](CC(C)C)NC(=O)[C@H](CCC(N)=O)NC(=O)CNC(=O)[C@@H]1CC(=O)CN1)C(=O)N[C@@H](C)C(=O)NCC(=O)N1CCC[C@H]1C(=O)N[C@@H](CCCCN)C(=O)O [YDE-035, (4-oxo)Pro-Gly-Gln-Leu-Gly-Leu-Ala-Gly-Pro-Lys] (H-[Pro(4-oxo)]GQLGLAGPK-OH)	–	–	27.62 ± 6.51
CC(C)C[C@H](NC(=O)CNC(=O)[C@H](CC(C)C)NC(=O)[C@H](CCC(N)=O)NC(=O)CNC(=O)[C@@H]1C[C@@H](F)CN1)C(=O)N[C@@H](C)C(=O)NCC(=O)N1CCC[C@H]1C(=O)N[C@@H](CCCCN)C(=O)O [YDE-039, (4-Fluoro)Pro-Gly-Gln-Leu-Gly-Leu-Ala-Gly-Pro-Lys] (H-[Pro(trans-4-F)]GQLGLAGPK-OH)	–	–	29.94 ± 11.40
CC(C)C[C@H](NC(=O)CNC(=O)[C@H](CC(C)C)NC(=O)[C@H](CCC(N)=O)NC(=O)CNC(=O)[C@@H]1C[C@@H](O)CN1)C(=O)O [YDE-042, HyP-Gly-Gln-Leu-Gly-Leu] (H-[Hyp]GQLGL-OH)	–	–	20.72 ± 11.37
CC(C)C[C@H](NC(=O)[C@H](CCC(N)=O)NC(=O)CNC(=O)[C@@H]1C[C@@H](O)CN1)C(=O)NCC(=O)O [YDE-043, HyP-Gly-Gln-Leu-Gly] (H-[Hyp]GQLG-OH)	–	–	19.04 ± 7.36
CCC(C)[C@H](NC(=O)[C@H](CC(=O)O)NC(=O)[C@H](CCC(N)=O)NC(=O)CNC(=O)[C@@H]1C[C@@H](O)CN1)C(=O)N[C@@H](CC(C)C)C(=O)N[C@@H](C)C(=O)NCC(=O)N1CCC[C@H]1C(=O)N[C@@H](CCCCN)C(=O)O (stereo partly drawn) [YDE-016, HyP-Gly-Gln-Asp-Ile-Leu-Ala-Gly-Pro-Lys] (H-[Hyp]GQD[Ile(3ξ)]LAGPK-OH)	11.33	24.57 ± 10.34	–
CC(C)C[C@H](NC(=O)CNC(=O)[C@H](CC(C)C)NC(=O)[C@H](CCC(N)=O)NC(=O)CNC(=O)[C@@H]1C[C@@H](O)CN1)C(=O)N[C@@H](C)C(=O)NCC(=O)N1CCC[C@H]1C(=O)N[C@@H](CCC(=O)O)C(=O)O [YDE-031, HyP-Gly-Gln-Leu-Gly-Leu-Ala-Gly-Pro-Glu] (H-[Hyp]GQLGLAGPE-OH)	–	–	33.35 ± 11.01
PGQLGLAGPK [YDE-037, Pro-Gly-Gln-Leu-Gly-Leu-Ala-Gly-Pro-Lys]	–	–	36.30 ± 9.75

Reference: patent US12037415B2, “Peptide and pharmaceutical composition for treating an eye disease comprising the same as an active pharmaceutical ingredient” (YuYu Pharma, Inc., priority 2017, dated 2024)
